The source of these data is US12552771B2, “Carboxylic acid containing azetidinyl compounds for the treatment of neurodegenerative diseases” (Celgene Corporation, priority 2021, dated 2026).

Molecules are shown by their SMILES. Counter-ions that a name gives are not always drawn.

The assay deals with T1, S1P5 receptors (Homo sapiens, UniProt Q9H228).
T1 construct: expressed in transfected cells; host or cells: CHO cells (membranes)
T1 sequence (Q9H228 whole entry): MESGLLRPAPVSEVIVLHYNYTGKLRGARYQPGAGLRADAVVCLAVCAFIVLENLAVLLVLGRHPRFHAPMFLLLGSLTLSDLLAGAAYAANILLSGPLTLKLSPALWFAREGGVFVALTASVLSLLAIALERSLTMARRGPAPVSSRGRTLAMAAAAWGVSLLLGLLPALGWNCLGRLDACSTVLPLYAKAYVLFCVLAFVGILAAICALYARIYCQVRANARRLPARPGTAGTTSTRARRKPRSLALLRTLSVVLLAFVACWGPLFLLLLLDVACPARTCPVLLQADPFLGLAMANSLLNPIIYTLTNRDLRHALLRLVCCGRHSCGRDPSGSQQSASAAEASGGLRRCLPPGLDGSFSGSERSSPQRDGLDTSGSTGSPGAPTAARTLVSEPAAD
Nature of the assay: [35S]-GTPγS binding assay with CHO-S1P5 receptor membranes. The class given is biochemical. The settings on record: membranes of CHO cells expressing recombinant S1P5 receptors; measure of S1P5 agonism. How it is done: CHO cells expressing recombinant S1P5 receptors were cultured in 500 cm^2 culture trays and, once confluent, rinsed and detached with cell-lifting buffer (10 mM HEPES, 154 mM NaCl, 6.85 mM EDTA, pH 7.4). Cells were then pelleted by centrifugation, resuspended, and homogenized in membrane preparation buffer (10 mM HEPES and 10 mM EDTA, pH 7.4) using a Polytron PT 1200E homogenizer (Kinematica, Luzern, Switzerland). Cellular proteins were pelleted by centrifugation at 48,000×g at 4° C. for 30 minutes. The resulting supernatant was discarded, and the pellet was re-suspended again in membrane preparation buffer, homogenized for a second time, and then centrifuged again as described above. The final cellular protein pellet was suspended in ice cold resuspension buffer (10 mM HEPES and 0.1 mM EDTA, pH 7.4), divided into aliquots, and stored at −80° C. until use.
Functional binding assays for [^35]-GTPγS were performed in 96-well non-binding surface plates with a final volume of 200 μL. The test compounds were serially diluted in DMSO and added to assay plates using a Tecan D300E digital printer with a total volume of […]. The control sphingosine-1-phosphate (SiP) was prepared separately by preparing a 400 μM stock solution from a 100 nmol pellet of SiP in 10 mM Na2CO3 with 2% […]. The serial dilution of SiP was done using complete assay buffer (20 mM HEPES, 10 mM MgCl2, 100 mM NaCl, 1 mM EDTA, 0.1% fatty acid free bovine serum albumin (BSA), and 30 μg/mL saponin, pH 7.4) and transferred to wells already containing 0.4 μL DMSO. All the wells were then loaded to a total volume of 40 μL of complete assay buffer, except the non-specific binding (NSB) wells. For NSB wells, 40 μL/well of 50 μM GTPγS (Sigma Aldrich, cat #G8634, St. Louis, MO) was added to wells containing 0.4 μL of DMSO. The assay was started by the addition of 120 μL/well of CHO-S1P receptor membrane solution containing 40 μg/mL of membrane protein, 16.67 μM guanosine diphosphate (GDP; Sigma Aldrich, cat #G7127, St. Louis, MO), and 2.5 mg/mL of WGA PVT SPA beads in complete buffer. Assay plates were then sealed and incubated at room temperature with gentle agitation for 30 minutes. Next, 40 μL/well of 1 nM of [^35]-GTPγS (PerkinElmer, cat #NEG030X250UC, Waltham, MA) in basic assay buffer (20 mM HEPES, 10 mM MgCl2, 100 mM NaCl, and 1 mM EDTA, pH7.4) was added to the assay plates to yield a final concentration of 200 pM and the plates were further incubated for 40 minutes at room temperature with gentle agitation. The assay was terminated by centrifugation of the plates at 1000 rpm for 3 minutes using an Eppendorf 5810R centrifuge (Eppendorf, Hamburg, Germany) and G protein bound radioactivity was quantitated using a MicroBeta2 microplate scintillation counter (PerkinElmer, Waltham, MA). As G protein bound radioactivity directly correlates to receptor activation and coupling to the G protein, this assay is a measure of S1P5 agonism.
For orientation: GTPγS resists hydrolysis and so accumulates on activated G proteins.
As a reminder, the EC50 is the concentration at which the effect is half-maximal. With `O=C(O)C1CCN(C2CCc3cc(N4CC(c5ccccc5F)C4)ccc32)CC1` (single isomer, unassigned) [Compound 10b, 1-(5-(3-(2-fluorophenyl)azetidin-1-yl)-2,3-dihydro-1H-inden-1-yl)piperidine-4-carboxylic acid], the EC50 lay in the range of 1000 to 10000 nM.

With `O=C(O)C1CCN(C2CCc3cc(C4CN(c5c(Cl)cccc5Cl)C4)cc(F)c32)CC1` (racemic) [Compound 6, 1-(5-(1-(2,6-dichlorophenyl)azetidin-3-yl)-7-fluoro-2,3-dihydro-1H-inden-1-yl)piperidine-4-carboxylic acid], the EC50 was at most 10 nM. As to `Cc1cc(N2CC(c3c(Cl)cccc3Cl)C2)cc(C)c1CN1CCC(C(=O)O)CC1` [Compound 28, 1-(4-(3-(2,6-dichlorophenyl)azetidin-1-yl)-2,6-dimethylbenzyl)piperidine-4-carboxylic acid], the EC50 is at most 10 nM. The same measure for `O=C(O)C1CCN(Cc2ccc(N3CC(c4c(Cl)cccc4Cl)C3)nc2)CC1` [Compound 32, 1-((6-(3-(2,6-dichlorophenyl)azetidin-1-yl)pyridin-3-yl)methyl)piperidine-4-carboxylic acid]: 10 to 100 nM; for `O=C(O)C1CCN(C2CCc3cc(C4CN(c5c(F)cccc5F)C4)ccc32)CC1` (single isomer, unassigned) [Compound 2a, 1-(5-(1-(2,6-difluorophenyl)azetidin-3-yl)-2,3-dihydro-1H-inden-1-yl)-piperidine-4-carboxylic acid]: 10 to 100 nM; for `O=C(O)[C@@H]1CCN(Cc2ccc(C3CN(c4c(Cl)cccc4Cl)C3)cc2)C1` [Compound 12b, (R)-1-(4-(1-(2,6-dichlorophenyl)azetidin-3-yl)benzyl)pyrrolidine-3-carboxylic acid]: at most 10 nM. For `O=C(O)C1CCN(Cc2ccc(C3CN(c4cccc(F)c4)C3)cc2)CC1` [Compound 41, 1-(4-(1-(3-fluorophenyl)azetidin-3-yl)benzyl)piperidine-4-carboxylic acid], the EC50 fell in the range of 1000 to 10000 nM. With `CC1(C(=O)O)CCN(Cc2ccc(C3CN(c4c(Cl)cccc4Cl)C3)cc2)CC1` [Compound 89, 1-(4-(1-(2,6-dichlorophenyl)azetidin-3-yl)benzyl)-4-methylpiperidine-4-carboxylic acid, formic acid salt] the figure was 10 to 100 nM. As for `O=C(O)C1CCN(C2CCc3cc(N4CC(c5c(F)cccc5F)C4)ccc32)CC1` (single isomer, unassigned) [Compound 9b, 1-(5-(3-(2,6-difluorophenyl)azetidin-1-yl)-2,3-dihydro-1H-inden-1-yl)piperidine-4-carboxylic acid], the EC50 was 100 to 1000 nM.

Regarding `CCc1cc(C2CN(c3c(Cl)cccc3Cl)C2)cc(CC)c1CN1CCC(C(=O)O)CC1` [Compound 52, 1-(4-(1-(2,6-dichlorophenyl)azetidin-3-yl)-2,6-diethylbenzyl)piperidine-4-carboxylic acid], the EC50 was at most 10 nM. The same measure for `Cc1cc(C2CN(c3c(Cl)cccc3Cl)C2)cc(C)c1CN1CCC(C(=O)O)C(C)C1` (stereo not shown) [Compound 61, 1-(4-(1-(2,6-dichlorophenyl)azetidin-3-yl)-2,6-dimethylbenzyl)-3-methyl-piperidine-4-carboxylic acid]: at most 10 nM; for `CC(C)c1cc(C2CN(c3c(Cl)cccc3Cl)C2)cc(C(C)C)c1CN1CCC(C(=O)O)CC1` [Compound 53, 1-(4-(1-(2,6-dichlorophenyl)azetidin-3-yl)-2,6-diisopropylbenzyl)piperidine-4-carboxylic acid]: 100 to 1000 nM; for `O=C(O)C1CCN(C2CCc3cc(C4CN(c5c(F)cccc5F)C4)ccc32)CC1` (single isomer, unassigned) [Compound 2b, 1-(5-(1-(2,6-difluorophenyl)azetidin-3-yl)-2,3-dihydro-1H-inden-1-yl)-piperidine-4-carboxylic acid]: 1000 to 10000 nM.

For the molecule `O=C(O)C1CCN(C2CCc3cc(C4CN(c5cccc(F)c5)C4)ccc32)CC1` (single isomer, unassigned) [Compound 3a, 1-(5-(1-(3-fluorophenyl)azetidin-3-yl)-2,3-dihydro-1H-inden-1-yl)piperidine-4-carboxylic acid], the EC50 is 100 to 1000 nM. For the molecule `Cc1cc(C2CN(c3c(Cl)cccc3Cl)C2)cc(C)c1CN1CC[C@H](C(=O)O)C1` [Compound 62, (S)-1-(4-(1-(2,6-dichlorophenyl)azetidin-3-yl)-2,6-dimethylbenzyl)-pyrrolidine-3-carboxylic acid], the EC50 was at most 10 nM. `CC(C)(c1ccc(C2CN(c3c(Cl)cccc3Cl)C2)cc1)N1CCC(C(=O)O)CC1` [Compound 17, 1-(2-(4-(1-(2,6-dichlorophenyl)azetidin-3-yl)phenyl)propan-2-yl)piperidine-4-carboxylic acid]: the EC50 was at most 10 nM. With `O=C(O)C1CCN(Cc2ccc(N3CC(c4c(Cl)cccc4Cl)C3)cc2)CC1` [Compound 24, 1-(4-(3-(2,6-dichlorophenyl)azetidin-1-yl)benzyl)piperidine-4-carboxylic acid] the figure was 10 to 100 nM; with `Cc1cc(C2CN(c3c(C)cccc3C(F)F)C2)cc(C)c1CN1CCC(C(=O)O)CC1` [Compound 72, 1-(4-(1-(2-(difluoromethyl)-6-methylphenyl)azetidin-3-yl)-2,6-dimethyl-benzyl)piperidine-4-carboxylic acid], 10 to 100 nM; with `O=C(O)C1CN(C2CCc3cc(C4CN(c5cccc(F)c5)C4)ccc32)C1` (single isomer, unassigned) [Compound 8a, 1-(5-(1-(3-fluorophenyl)azetidin-3-yl)-2,3-dihydro-1H-inden-1-yl)azetidine-3-carboxylic acid], 1000 to 10000 nM. Consider `Cc1cc(C2CN(c3c(Cl)cccc3Cl)C2)cnc1CN1CCC(C(=O)O)CC1` [Compound 76, 1-((5-(1-(2,6-dichlorophenyl)azetidin-3-yl)-3-methylpyridin-2-yl)methyl)-piperidine-4-carboxylic acid], for which the EC50 was in the range of 10 to 100 nM. Consider `Cc1cc(C2CN(c3c(Cl)cccc3Cl)C2)cc(F)c1CN1CCC(C(=O)O)CC1` [Compound 50, 1-(4-(1-(2,6-dichlorophenyl)azetidin-3-yl)-2-fluoro-6-methylbenzyl)-piperidine-4-carboxylic acid], for which the EC50 was at most 10 nM. Turning to `Cc1cc(CN2CCC(C(=O)O)CC2)cc(C)c1N1CC(F)(c2c(Cl)cccc2Cl)C1` [Compound 36, 1-(4-(3-(2,6-dichlorophenyl)-3-fluoroazetidin-1-yl)-3,5-dimethylbenzyl)-piperidine-4-carboxylic acid], the EC50 was in the range of 10 to 100 nM. As to `Cc1cc(C2CN(c3c(Cl)cccc3Cl)C2)cc2c1C(N1CCC(C(=O)O)CC1)CC2` (racemic) [Compound 5, 1-(5-(1-(2,6-dichlorophenyl)azetidin-3-yl)-7-methyl-2,3-dihydro-1H-inden-1-yl)piperidine-4-carboxylic acid], the EC50 is at most 10 nM. The same measure for `O=C(O)C1CCN(Cc2ccc(N3CC(F)(c4c(Cl)cccc4Cl)C3)cc2)CC1` [Compound 35, 1-(4-(3-(2,6-dichlorophenyl)-3-fluoroazetidin-1-yl)benzyl)piperidine-4-carboxylic acid]: 1000 to 10000 nM. `Cc1cc(C(C)(C)N2CCC(C(=O)O)CC2)cc(C)c1C1CN(c2c(Cl)cccc2Cl)C1` [Compound 86, 1-(2-(4-(1-(2,6-dichlorophenyl)azetidin-3-yl)-3,5-dimethylphenyl)propan-2-yl)piperidine-4-carboxylic acid]: the EC50 was at most 10 nM.
